Assays:
[1] = target: T1, GST-tagged PPARγ ligand-binding domain (PPARγ LBD) (Homo sapiens, UniProt P37231); test: biochemical
T1 sequence (P37231 238-503 limits assumed): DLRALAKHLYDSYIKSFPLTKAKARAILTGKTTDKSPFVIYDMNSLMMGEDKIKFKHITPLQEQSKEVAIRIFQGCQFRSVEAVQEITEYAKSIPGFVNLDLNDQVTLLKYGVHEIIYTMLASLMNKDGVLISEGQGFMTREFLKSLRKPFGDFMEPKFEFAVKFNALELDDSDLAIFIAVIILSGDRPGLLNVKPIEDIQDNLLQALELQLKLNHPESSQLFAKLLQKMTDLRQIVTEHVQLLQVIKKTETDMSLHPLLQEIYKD

[2] = target: T1, GST-tagged PPARγ ligand-binding domain (PPARγ LBD); test: In vitro competition binding assay
[3] = test system: PPARγ phosphorylation at S273; type: cell-based, mouse; settings: 3T3-L1 differentiated adipocytes, in the presence of TNFα, compounds at 10 μM, Western blot with pSer273-specific antibody
3T3-L1 cells = test: Oil Red O staining of 3T3-L1 adipocyte differentiation; type: cell-based, mouse; settings: 3T3-L1 in differentiation media, compounds at 10 μM

Ki [1] [nM]	IC50 [2] [nM]	SMILES	Inhibition of PPARγ S273 phosphorylation [3]	fold improvement in PPARγ binding potency compared to parental compound UHC1 ([2]; ratio of IC50 vs UHC1)	Adipocyte differentiation (Oil Red O staining of lipid droplets) (3T3-L1 cells)
254	325	Cc1cc(C(=O)NCc2cccc(O)c2)ccc1NCc1ccc(-c2ccccc2C(=O)O)cc1 [Compound 5, 4’-(((4-((3-Hydroxybenzyl)carbamoyl)-2-methylphenyl)amino)methyl)-[1,1’-biphenyl]-2-carboxylic acid]			
		COc1cc(CNC(=O)c2ccc3c(c2)c(C)c(C)n3Cc2ccc(-c3ccccc3C(=O)O)cc2)ccc1O [Compound 2e, 4’-((5-((4-Hydroxy-3-methoxybenzyl)carbamoyl)-2,3-dimethyl-1H-indol-1-yl)methyl)-[1,1’-biphenyl]-2-carboxylic acid]	significantly inhibited	over 30 fold	
		Cc1c(C)n(Cc2ccc(-c3ccccc3C(=O)O)cc2)c2ccc(C(=O)NCc3cccnc3)cc12 [UHC1, reference compound]	significantly inhibited		significantly reduced Oil Red O staining
